# In patent US20100086483A1, “METHOD OF MULTIDETECTOR COMPUTED TOMAGRAPHY” (Gilead Palo Alto, Inc., priority 2008, published 2010):
# Test system: conscious dogs
# Test: Effects of caffeine on regadenoson-induced coronary vasodilation and changes in hemodynamics in conscious dogs (Part II)
# Type: in vivo, dog
# Conditions: for duration of 2-fold increase in CBF / maximum CBF: time control group, 4 dogs
# Procedure: Sixteen chronically instrumented male mongrel dogs weighing from 22-30 kg were used in the study. The animal protocol was approved by the Institutional Animal Care and Use Committee of New York Medical College and conforms to the Guide for the Care and Use of Laboratory Animal by the United States National Institutes of Health.
# Dogs were sedated with acepromazine (0.3 mg/kg, IM) and anesthetized with pentobarbital sodium (25 mg/kg, IV). After intubation, dogs were artificially ventilated with room air. A thoracotomy was made in the fifth intercostal space using sterile techniques. A Tygon catheter (Cardiovascular Instruments, Wakefield, Mass.) was inserted into the descending thoracic aorta and another one was inserted into the left atrium. In 9 dogs, an ultrasound flow transducer (Transonic Systems, Ithaca, N.Y.) was placed around the left circumflex coronary artery. A solid-state pressure gauge (P6.5, Konisberg Instruments, Pasadena, Calif.) was placed into the left ventricle through the apex. The chest was closed in layers. The catheters and wires were tunneled subcutaneously and externalized through the skin at the back of the dog's neck. Dogs were allowed to recover from the surgery before experiments were performed, and were trained to lie on a table.
# Phasic arterial pressure was measured by connecting the aortic catheter to a strain gauge transducer (P23 ID, LDS Test and Measurement, Valley View, Ohio). Left ventricular pressures were measured by the solid pressure gauge. CBF (mL/min) was measured from an ultrasound flow transducer using a Transonic flowmeter (T206, Transonic Systems, Ithaca, N.Y.). Two indices were used to describe the regadenoson-induced coronary vasodilation: 1) the maximum increase in CBF and 2) the duration of the 2-fold increase in CBF (the period of time that CBF was elevated to a level ≧2-fold of baseline CBF). All pressure and flow data were acquired and analyzed using a Ponemah System (Version 3.30 or 4.20, LDS Test and Measurement, Valley View, Ohio). MAP and HR were calculated from phasic blood pressure, and LV dP/dtMax was calculated from the left ventricular systolic pressure.
# On the day of an experiment, a dog was placed on a table, where it lay quietly during the experiment. A catheter was inserted into a peripheral vein in the leg and attached to an infusion line to administer drugs without disturbing the dog. The experiment was begun after MAP, HR and CBF were stable.
# Each dog received an IV injection of 5 μg/kg of regadenoson. […] LVSP, LV dP/dtMax, MAP, HR and CBF were recorded continuously. Blood samples were taken from the left atrial catheter at 1, 3, 5, 15, 30, 45 and 60 min following injections of regadenoson.
# In 4 dogs, two doses of regadenoson (5 μg/kg, IV) were given 90 min apart (without blood sampling) to determine if there is tachyphylaxis of regadenoson-induced coronary vasodilation.
# The statistical significance of a difference between the value of a parameter at baseline and at the indicated time point after drug administration was determined using a One-Way Repeated Measures ANOVA followed by Tukey's Test. […] Results with p<0.05 were considered to be significant. […] All data are presented as Mean±SEM.
# [1] = regadenoson 5 μg/kg IV in the presence of caffeine 1 mg/kg
# [2] = regadenoson 5 μg/kg IV in the presence of caffeine 2 mg/kg
# [3] = regadenoson 5 μg/kg IV in the presence of caffeine 4 mg/kg
# [4] = regadenoson 5 μg/kg IV in the presence of caffeine 10 mg/kg
# [5] = regadenoson 5 μg/kg IV without caffeine (control of caffeine 1 mg/kg group), 0.5 min
# [6] = regadenoson 5 μg/kg IV without caffeine (control of caffeine 1 mg/kg group), 1 min
# [7] = regadenoson 5 μg/kg IV without caffeine (control of caffeine 1 mg/kg group), 2 min
# [8] = regadenoson 5 μg/kg IV without caffeine (control of caffeine 1 mg/kg group), 3 min
# [9] = regadenoson 5 μg/kg IV without caffeine (control of caffeine 1 mg/kg group), 4 min
# [10] = regadenoson 5 μg/kg IV without caffeine (control of caffeine 1 mg/kg group), 5 min
# [11] = regadenoson 5 μg/kg IV without caffeine (control of caffeine 1 mg/kg group), 10 min
# [12] = regadenoson 5 μg/kg IV without caffeine (control of caffeine 1 mg/kg group), 15 min
# [13] = regadenoson 5 μg/kg IV without caffeine (control of caffeine 1 mg/kg group), 20 min
# [14] = regadenoson 5 μg/kg IV without caffeine (control of caffeine 2 mg/kg group), 0.5 min
# [15] = regadenoson 5 μg/kg IV without caffeine (control of caffeine 2 mg/kg group), 1 min
# [16] = regadenoson 5 μg/kg IV without caffeine (control of caffeine 2 mg/kg group), 2 min
# [17] = regadenoson 5 μg/kg IV without caffeine (control of caffeine 2 mg/kg group), 3 min
# [18] = regadenoson 5 μg/kg IV without caffeine (control of caffeine 2 mg/kg group), 4 min
# [19] = regadenoson 5 μg/kg IV without caffeine (control of caffeine 2 mg/kg group), 5 min
# [20] = regadenoson 5 μg/kg IV without caffeine (control of caffeine 2 mg/kg group), 10 min
# [21] = regadenoson 5 μg/kg IV without caffeine (control of caffeine 2 mg/kg group), 15 min
# [22] = regadenoson 5 μg/kg IV without caffeine (control of caffeine 2 mg/kg group), 20 min
# [23] = regadenoson 5 μg/kg IV without caffeine (control of caffeine 4 mg/kg group), 0.5 min
# [24] = regadenoson 5 μg/kg IV without caffeine (control of caffeine 4 mg/kg group), 1 min
# [25] = regadenoson 5 μg/kg IV without caffeine (control of caffeine 4 mg/kg group), 2 min
# [26] = regadenoson 5 μg/kg IV without caffeine (control of caffeine 4 mg/kg group), 3 min
# [27] = regadenoson 5 μg/kg IV without caffeine (control of caffeine 4 mg/kg group), 4 min
# [28] = regadenoson 5 μg/kg IV without caffeine (control of caffeine 4 mg/kg group), 5 min
# [29] = regadenoson 5 μg/kg IV without caffeine (control of caffeine 4 mg/kg group), 10 min
# [30] = regadenoson 5 μg/kg IV without caffeine (control of caffeine 4 mg/kg group), 15 min
# [31] = regadenoson 5 μg/kg IV without caffeine (control of caffeine 4 mg/kg group), 20 min
# [32] = regadenoson 5 μg/kg IV without caffeine (control of caffeine 10 mg/kg group), 0.5 min
# [33] = regadenoson 5 μg/kg IV without caffeine (control of caffeine 10 mg/kg group), 1 min
# [34] = regadenoson 5 μg/kg IV without caffeine (control of caffeine 10 mg/kg group), 2 min
# [35] = regadenoson 5 μg/kg IV without caffeine (control of caffeine 10 mg/kg group), 3 min
# [36] = regadenoson 5 μg/kg IV without caffeine (control of caffeine 10 mg/kg group), 4 min
# [37] = regadenoson 5 μg/kg IV without caffeine (control of caffeine 10 mg/kg group), 5 min
# [38] = regadenoson 5 μg/kg IV without caffeine (control of caffeine 10 mg/kg group), 10 min
# [39] = regadenoson 5 μg/kg IV without caffeine (control of caffeine 10 mg/kg group), 15 min
# [40] = regadenoson 5 μg/kg IV without caffeine (control of caffeine 10 mg/kg group), 20 min
# [41] = regadenoson 5 μg/kg IV, absence of caffeine, n=8
# [42] = regadenoson 5 μg/kg IV, absence of caffeine, n=9
# [43] = first injection of regadenoson 5 μg/kg IV
# [44] = second injection of regadenoson 5 μg/kg IV 90 min later
smiles,measurement,setting,value
"CNC(=O)c1cnn(-c2nc(N)c3ncn([C@@H]4O[C@H](CO)[C@@H](O)[C@H]4O)c3n2)c1 [Regadenoson, (1-{9-[(4S,2R,3R,5R)-3,4-dihydroxy-5-(hydroxymethyl)oxolan-2-yl]-6-aminopurin-2-yl}pyrazol-4-yl)-N-methylcarboxamide]",time regadenoson-increased CBF remained at ≧2-fold baseline levels,"in the presence of 1, 2 and 4 mg/kg caffeine",≥ 3 min
same,decrease in LVSP from baseline,[1],9±3%
same,peak decrease in MAP from baseline,[1],13±2%
same,decrease in LVSP from baseline,[2],6±2%
same,peak decrease in MAP from baseline,[2],13±1%
same,decrease in LVSP from control (p>0.05),[3],1±5%
same,peak decrease in MAP from baseline,[3],2±5%
same,increase in LVSP from control,[4],11±7%
same,increase in MAP from baseline (insignificant),[4],9±6%
same,peak increase in HR from baseline,regadenoson 5 μg/kg IV with caffeine 1 mg/kg,124±12%
same,peak increase in HR from baseline,regadenoson 5 μg/kg IV with caffeine 2 mg/kg,109±21%
same,peak increase in HR from baseline,regadenoson 5 μg/kg IV with caffeine 4 mg/kg,79±20%
same,peak increase in HR from baseline,regadenoson 5 μg/kg IV with caffeine 10 mg/kg,74±16%
same,HR,[5],138 ± 10 bpm
same,MAP,[5],97 ± 2 mm Hg
same,HR,[6],144 ± 13 bpm
same,MAP,[6],93 ± 3 mm Hg
same,HR,[7],142 ± 9 bpm
same,MAP,[7],92 ± 4 mm Hg
same,HR,[8],131 ± 9 bpm
same,MAP,[8],92 ± 3 mm Hg
same,HR,[9],125 ± 8 bpm
same,MAP,[9],94 ± 3 mm Hg
same,HR,[10],121 ± 8 bpm
same,MAP,[10],96 ± 3 mm Hg
same,HR,[11],100 ± 7 bpm
same,MAP,[11],97 ± 4 mm Hg
same,HR,[12],94 ± 7 bpm
same,MAP,[12],96 ± 4 mm Hg
same,HR,[13],89 ± 7 bpm
same,MAP,[13],96 ± 3 mm Hg
same,HR,[14],160 ± 13 bpm
same,MAP,[14],89 ± 5 mm Hg
same,HR,[15],145 ± 7 bpm
same,MAP,[15],89 ± 5 mm Hg
same,HR,[16],150 ± 4 bpm
same,MAP,[16],91 ± 5 mm Hg
same,HR,[17],137 ± 5 bpm
same,MAP,[17],91 ± 3 mm Hg
same,HR,[18],127 ± 4 bpm
same,MAP,[18],93 ± 4 mm Hg
same,HR,[19],129 ± 6 bpm
same,MAP,[19],90 ± 3 mm Hg
same,HR,[20],104 ± 5 bpm
same,MAP,[20],91 ± 2 mm Hg
same,HR,[21],104 ± 6 bpm
same,MAP,[21],96 ± 3 mm Hg
same,HR,[22],93 ± 7 bpm
same,MAP,[22],97 ± 3 mm Hg
same,HR,[23],166 ± 18 bpm
same,MAP,[23],107 ± 6 mm Hg
same,HR,[24],163 ± 8 bpm
same,MAP,[24],95 ± 5 mm Hg
same,HR,[25],158 ± 6 bpm
same,MAP,[25],99 ± 4 mm Hg
same,HR,[26],141 ± 4 bpm
same,MAP,[26],98 ± 4 mm Hg
same,HR,[27],131 ± 6 bpm
same,MAP,[27],100 ± 2 mm Hg
same,HR,[28],128 ± 7 bpm
same,MAP,[28],100 ± 2 mm Hg
same,HR,[29],113 ± 5 bpm
same,MAP,[29],100 ± 2 mm Hg
same,HR,[30],102 ± 6 bpm
same,MAP,[30],101 ± 4 mm Hg
same,HR,[31],101 ± 6 bpm
same,MAP,[31],102 ± 4 mm Hg
same,HR,[32],149 ± 15 bpm
same,MAP,[32],93 ± 3 mm Hg
same,HR,[33],144 ± 7 bpm
same,MAP,[33],86 ± 4 mm Hg
same,HR,[34],148 ± 5 bpm
same,MAP,[34],89 ± 4 mm Hg
same,HR,[35],135 ± 4 bpm
same,MAP,[35],89 ± 4 mm Hg
same,HR,[36],130 ± 5 bpm
same,MAP,[36],92 ± 4 mm Hg
same,HR,[37],127 ± 6 bpm
same,MAP,[37],92 ± 4 mm Hg
same,HR,[38],105 ± 4 bpm
same,MAP,[38],95 ± 4 mm Hg
same,HR,[39],98 ± 3 bpm
same,MAP,[39],93 ± 6 mm Hg
same,HR,[40],99 ± 7 bpm
same,MAP,[40],98 ± 5 mm Hg
same,peak increase in LV dP/dtMax from baseline,"regadenoson 5 μg/kg IV, absence of caffeine",65±7%
same,duration of the 2-fold increase in CBF,[41],515 ± 71 s
same,peak CBF,[41],191 ± 7 mL/min
same,peak decrease in LVSP from baseline,[41],9±1%
same,peak decrease in MAP from baseline,[42],15±2%
same,peak increase in HR from baseline,[42],114±14%
same,duration of 2-fold increase in CBF,[43],401 ± 45 s
same,maximum CBF,[43],178 ± 17 mL/min
same,duration of 2-fold increase in CBF,[44],395 ± 43 s
same,maximum CBF,[44],176 ± 6 mL/min
same,"differences in baseline CBF, maximum CBF or duration of 2-fold increase in CBF between two injections (tachyphylaxis)",two injections of regadenoson 5 μg/kg IV 90 min apart,no statistically significant differences
